Assay: recombinant UMI read abundance after kanamycin selection (control-corrected) (log10(CPM+1)); higher = more efficient recombination; extreme values may be limits of the assay; sequences stand for … in AGTGCAGAGAAAATCGGCCAGTTTTCTCTGCCTGCAGTCCGCATGCCGTGGGACCCCTTGGGTTCTAACCTGTTGCCTAGATTTATGCAGCGGACTGCCTTTCTCCCAAAGTGATAAACCGG…AGGTTGGTTTCACT; site = the 11-nt donor
Procedure, shortened: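 Values are reported as log10(CPM+1), obtained by converting sequencing counts to CPM, averaging replicates and scaling by control-derived factors. The counts came from recombinant UMIs amplified by PCR across the donor–target junction. These UMIs came from a pooled Escherichia coli screen of donor and donor-binding-loop pairs for the IS621 bridge recombinase, plated with IPTG (0.07 mM) plus kanamycin or left unselected, in two replicates each.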
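Note: IS621 bridge recombinase in Escherichia coli cells against a fixed T5 target plasmid.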

Sequence: CCCTAGCCATGGACCGGTTTTCCCGGTAATCCGTATTTGCC (site CCCTACCCTGG)
- recombinant UMI read abundance (log10): 0

Sequence: CCCTAGCCATGGACCGGTTTTCCCGGTAATCCGTATTTGCC (site CCCTAGACTGG)
- recombinant UMI read abundance (log10): 0

Sequence: CCCTAGCCATGGACCGGTTTTCCCGGTAATCCGTATTTGCC (site CCCTAGCCTAG)
- recombinant UMI read abundance (log10): 0.00741

Sequence: CCCTAGCCATGGACCGGTTTTCCCGGTAATCCGTATTTGCC (site CCCTAGCCTCG)
- recombinant UMI read abundance (log10): 0.00555

Sequence: CCCTAGCCATGGACCGGTTTTCCCGGTAATCCGTATTTGCC (site CCCTAGCCTGA)
- recombinant UMI read abundance (log10): 0

Sequence: CCCTAGCCATGGACCGGTTTTCCCGGTAATCCGTATTTGCC (site CCCTAGCCTGC)
- recombinant UMI read abundance (log10): 0

Sequence: CCCTAGCCATGGACCGGTTTTCCCGGTAATCCGTATTTGCC (site CCCTAGCCTGG)
- recombinant UMI read abundance (log10): 0

Sequence: CCCTAGCCATGGACCGGTTTTCCCGGTAATCCGTATTTGCC (site CCCTAGCCTGT)
- recombinant UMI read abundance (log10): 0

Sequence: CCCTAGCCATGGACCGGTTTTCCCGGTAATCCGTATTTGCC (site CCCTAGCCTTG)
- recombinant UMI read abundance (log10): 0.00543

Sequence: CCCTAGCCATGGACCGGTTTTCCCGGTAATCCGTATTTGCC (site CCCTAGGCTGG)
- recombinant UMI read abundance (log10): 0

Sequence: CCCTAGCCATGGACCGGTTTTCCCGGTAATCCGTATTTGCC (site CCCTAGTCTGG)
- recombinant UMI read abundance (log10): 1.15

Sequence: CCCTAGCCATGGACCGGTTTTCCCGGTAATCCGTATTTGCC (site CCCTATCCTGG)
- recombinant UMI read abundance (log10): 0

Sequence: CCCTAGCCATGGACCGGTTTTCCCGGTAATCCGTATTTGCC (site CCCTCGCCTGG)
- recombinant UMI read abundance (log10): 0

Sequence: CCCTAGCCATGGACCGGTTTTCCCGGTAATCCGTATTTGCC (site CCCTGGCCTGG)
- recombinant UMI read abundance (log10): 0

Sequence: CCCTAGCCATGGACCGGTTTTCCCGGTAATCCGTATTTGCC (site CCCTTGCCTGG)
- recombinant UMI read abundance (log10): 0

Sequence: CCCTAGCCATGGACCGGTTTTCCCGGTAATCCGTATTTGCC (site CCGTAGCCTGG)
- recombinant UMI read abundance (log10): 0

Sequence: CCCTAGCCATGGACCGGTTTTCCCGGTAATCCGTATTTGCC (site CCTTAGCCTGG)
- recombinant UMI read abundance (log10): 0

Sequence: CCCTAGCCATGGACCGGTTTTCCCGGTAATCCGTATTTGCC (site CGCTAGCCTGG)
- recombinant UMI read abundance (log10): 0

Sequence: CCCTAGCCATGGACCGGTTTTCCCGGTAATCCGTATTTGCC (site CTCTAGCCTGG)
- recombinant UMI read abundance (log10): 0

Sequence: CCCTAGCCATGGACCGGTTTTCCCGGTAATCCGTATTTGCC (site GCCTAGCCTGG)
- recombinant UMI read abundance (log10): 0

Sequence: CCCTAGCCATGGACCGGTTTTCCCGGTAATCCGTATTTGCC (site TCCTAGCCTGG)
- recombinant UMI read abundance (log10): 0

Sequence: CCCTAGGCATGGACCGGTTTTCCCGGTAATCCGTATTTGCC (site CCCTAGACTGG)
- recombinant UMI read abundance (log10): 0

Sequence: CCCTAGGCATGGACCGGTTTTCCCGGTAATCCGTATTTGCC (site CCCTAGCCTGG)
- recombinant UMI read abundance (log10): 0

Sequence: CCCTAGGCATGGACCGGTTTTCCCGGTAATCCGTATTTGCC (site CCCTAGGCTGG)
- recombinant UMI read abundance (log10): 0

Sequence: CCCTAGGCATGGACCGGTTTTCCCGGTAATCCGTATTTGCC (site CCCTAGTCTGG)
- recombinant UMI read abundance (log10): 0

Sequence: CCCTAGTCATGGACCGGTTTTCCCGGTAATCCGTATTTGCC (site CCCTAGACTGG)
- recombinant UMI read abundance (log10): 0.402

Sequence: CCCTAGTCATGGACCGGTTTTCCCGGTAATCCGTATTTGCC (site CCCTAGCCTGG)
- recombinant UMI read abundance (log10): 0

Sequence: CCCTAGTCATGGACCGGTTTTCCCGGTAATCCGTATTTGCC (site CCCTAGGCTGG)
- recombinant UMI read abundance (log10): 0

Sequence: CCCTAGTCATGGACCGGTTTTCCCGGTAATCCGTATTTGCC (site CCCTAGTCTGG)
- recombinant UMI read abundance (log10): 1.23

Sequence: CCCTCAACATGGACCGGTTTTCCCGGTAATCCGTATTTGCA (site CCCTCAACTTG)
- recombinant UMI read abundance (log10): 0.377

Sequence: CCCTCTACATGGACCGGTTTTCCCGGTAATCCGTATTTGCT (site CCCTCTACTAG)
- recombinant UMI read abundance (log10): 1.58

Sequence: CCCTGTCCATGGACCGGTTTTCCCGGTAATCCGTATTTGCA (site CCCAGTCCTTG)
- recombinant UMI read abundance (log10): 0

Sequence: CCCTGTCCATGGACCGGTTTTCCCGGTAATCCGTATTTGCA (site CCCCGTCCTTG)
- recombinant UMI read abundance (log10): 0.0428

Sequence: CCCTGTCCATGGACCGGTTTTCCCGGTAATCCGTATTTGCA (site CCCGGTCCTTG)
- recombinant UMI read abundance (log10): 0

Sequence: CCCTGTCCATGGACCGGTTTTCCCGGTAATCCGTATTTGCA (site CCCTGTCCTTG)
- recombinant UMI read abundance (log10): 0.00678

Sequence: CCCTTAGCATGGACCGGTTTTCCCGGTAATCCGTATTTGTG (site CCATTAGCTCA)
- recombinant UMI read abundance (log10): 0.0224

Sequence: CCCTTAGCATGGACCGGTTTTCCCGGTAATCCGTATTTGTG (site CCCTTAGCTCA)
- recombinant UMI read abundance (log10): 0.0472

Sequence: CCCTTAGCATGGACCGGTTTTCCCGGTAATCCGTATTTGTG (site CCGTTAGCTCA)
- recombinant UMI read abundance (log10): 0.00331

Sequence: CCCTTAGCATGGACCGGTTTTCCCGGTAATCCGTATTTGTG (site CCTTTAGCTCA)
- recombinant UMI read abundance (log10): 0.0232

Sequence: CCCTTCTCATGGACCGGTTTTCCCGGTAATCCGTATTTGGG (site ACCTTCTCTCC)
- recombinant UMI read abundance (log10): 0.00611

Sequence: CCCTTCTCATGGACCGGTTTTCCCGGTAATCCGTATTTGGG (site CACTTCTCTCC)
- recombinant UMI read abundance (log10): 0.00776

Sequence: CCCTTCTCATGGACCGGTTTTCCCGGTAATCCGTATTTGGG (site CCATTCTCTCC)
- recombinant UMI read abundance (log10): 0

Sequence: CCCTTCTCATGGACCGGTTTTCCCGGTAATCCGTATTTGGG (site CCCATCTCTCC)
- recombinant UMI read abundance (log10): 0.0128

Sequence: CCCTTCTCATGGACCGGTTTTCCCGGTAATCCGTATTTGGG (site CCCCTCTCTCC)
- recombinant UMI read abundance (log10): 0.0125

Sequence: CCCTTCTCATGGACCGGTTTTCCCGGTAATCCGTATTTGGG (site CCCGTCTCTCC)
- recombinant UMI read abundance (log10): 0.00385

Sequence: CCCTTCTCATGGACCGGTTTTCCCGGTAATCCGTATTTGGG (site CCCTACTCTCC)
- recombinant UMI read abundance (log10): 0.0199

Sequence: CCCTTCTCATGGACCGGTTTTCCCGGTAATCCGTATTTGGG (site CCCTCCTCTCC)
- recombinant UMI read abundance (log10): 0.0129

Sequence: CCCTTCTCATGGACCGGTTTTCCCGGTAATCCGTATTTGGG (site CCCTGCTCTCC)
- recombinant UMI read abundance (log10): 0.0154

Sequence: CCCTTCTCATGGACCGGTTTTCCCGGTAATCCGTATTTGGG (site CCCTTATCTCC)
- recombinant UMI read abundance (log10): 0

Sequence: CCCTTCTCATGGACCGGTTTTCCCGGTAATCCGTATTTGGG (site CCCTTCACTCC)
- recombinant UMI read abundance (log10): 0.0149

Sequence: CCCTTCTCATGGACCGGTTTTCCCGGTAATCCGTATTTGGG (site CCCTTCCCTCC)
- recombinant UMI read abundance (log10): 0.00574

Sequence: CCCTTCTCATGGACCGGTTTTCCCGGTAATCCGTATTTGGG (site CCCTTCGCTCC)
- recombinant UMI read abundance (log10): 0.0128

Sequence: CCCTTCTCATGGACCGGTTTTCCCGGTAATCCGTATTTGGG (site CCCTTCTCTAC)
- recombinant UMI read abundance (log10): 0

Sequence: CCCTTCTCATGGACCGGTTTTCCCGGTAATCCGTATTTGGG (site CCCTTCTCTCA)
- recombinant UMI read abundance (log10): 0.0118

Sequence: CCCTTCTCATGGACCGGTTTTCCCGGTAATCCGTATTTGGG (site CCCTTCTCTCC)
- recombinant UMI read abundance (log10): 0.0281

Sequence: CCCTTCTCATGGACCGGTTTTCCCGGTAATCCGTATTTGGG (site CCCTTCTCTCG)
- recombinant UMI read abundance (log10): 0.0129

Sequence: CCCTTCTCATGGACCGGTTTTCCCGGTAATCCGTATTTGGG (site CCCTTCTCTCT)
- recombinant UMI read abundance (log10): 0.0297

Sequence: CCCTTCTCATGGACCGGTTTTCCCGGTAATCCGTATTTGGG (site CCCTTCTCTGC)
- recombinant UMI read abundance (log10): 0

Sequence: CCCTTCTCATGGACCGGTTTTCCCGGTAATCCGTATTTGGG (site CCCTTCTCTTC)
- recombinant UMI read abundance (log10): 0.00791

Sequence: CCCTTCTCATGGACCGGTTTTCCCGGTAATCCGTATTTGGG (site CCCTTGTCTCC)
- recombinant UMI read abundance (log10): 0.0418

Sequence: CCCTTCTCATGGACCGGTTTTCCCGGTAATCCGTATTTGGG (site CCCTTTTCTCC)
- recombinant UMI read abundance (log10): 0.00608

Sequence: CCCTTCTCATGGACCGGTTTTCCCGGTAATCCGTATTTGGG (site CCGTTCTCTCC)
- recombinant UMI read abundance (log10): 0

Sequence: CCCTTCTCATGGACCGGTTTTCCCGGTAATCCGTATTTGGG (site CCTTTCTCTCC)
- recombinant UMI read abundance (log10): 0.00766

Sequence: CCCTTCTCATGGACCGGTTTTCCCGGTAATCCGTATTTGGG (site CGCTTCTCTCC)
- recombinant UMI read abundance (log10): 0

Sequence: CCCTTCTCATGGACCGGTTTTCCCGGTAATCCGTATTTGGG (site CTCTTCTCTCC)
- recombinant UMI read abundance (log10): 0.0147

Sequence: CCCTTCTCATGGACCGGTTTTCCCGGTAATCCGTATTTGGG (site GCCTTCTCTCC)
- recombinant UMI read abundance (log10): 0.00558

Sequence: CCCTTCTCATGGACCGGTTTTCCCGGTAATCCGTATTTGGG (site TCCTTCTCTCC)
- recombinant UMI read abundance (log10): 0.0111

Sequence: CCCTTCTCATGGACCGGTTTTCCCGGTAATCCGTATTTGTG (site CCCTTCTCTCA)
- recombinant UMI read abundance (log10): 0.583

Sequence: CCCTTCTCATGGACCGGTTTTCCCGGTAATCCGTATTTGTG (site CCCTTCTCTCC)
- recombinant UMI read abundance (log10): 0.0231

Sequence: CCCTTCTCATGGACCGGTTTTCCCGGTAATCCGTATTTGTG (site CCCTTCTCTCG)
- recombinant UMI read abundance (log10): 0.995

Sequence: CCCTTCTCATGGACCGGTTTTCCCGGTAATCCGTATTTGTG (site CCCTTCTCTCT)
- recombinant UMI read abundance (log10): 0.00643

Sequence: CCCTTTTCATGGACCGGTTTTCCCGGTAATCCGTATTTGGG (site CCCTTATCTCC)
- recombinant UMI read abundance (log10): 0.00602

Sequence: CCCTTTTCATGGACCGGTTTTCCCGGTAATCCGTATTTGGG (site CCCTTCTCTCC)
- recombinant UMI read abundance (log10): 0.0124

Sequence: CCCTTTTCATGGACCGGTTTTCCCGGTAATCCGTATTTGGG (site CCCTTGTCTCC)
- recombinant UMI read abundance (log10): 0.0108

Sequence: CCCTTTTCATGGACCGGTTTTCCCGGTAATCCGTATTTGGG (site CCCTTTTCTCC)
- recombinant UMI read abundance (log10): 0

From the supplement of paper PMC11208160
